{"source": "patent US20240092741A1", "about": "“COMPOSITION FOR PREVENTION OR TREATMENT OF NEUROFIBROMATOSIS TYPE 2 SYNDROME” (PRG S&TECH INC., priority 2021, published 2024)", "key": {"mouse schwannoma cells": {"tested_on": "mouse schwannoma cells", "assay": "Allograft tumor growth assay", "assay_type": "in vivo", "procedure": "For allograft, 1×10^7 mouse schwannoma cells were seeded subcutaneously on FVB/NJ mice (8 weeks old). Tumor-bearing mice were administered with the carrier (n=8) or PRG-N-01 (20 mg/kg; n=8) by intraperitoneal injection for 5 weeks (3 times per week). Every week, the tumor volume and body weight were measured. After termination of the experiment in each group, mice were dissected, and tumor tissues were isolated.\nTo examine the in vivo effect of PRG-N-01, NF2 model mouse-derived schwannoma cells were allografted to 8-week-old mice, and PRG-N-01 was administered by intraperitoneal injection (20 mg/kg, 3 times a week)."}, "HEI-193 cells [1]": {"tested_on": "HEI-193 cells", "assay": "Cell-cycle analysis by FACS in HEI-193 cells", "assay_type": "cell-based, human", "settings": "10 μM, 4 days (FIGS. 12A, 13A)", "procedure": "[…] After 4 days, the cells were fixed with 70% ethanol and labeled with propidium iodine. These samples were analyzed by FACS for cell-cycle analysis. After 7 days of treatment with DMSO (control group), PRG-N-01, or TEW7197 at the indicated concentration, the cells were fixed with 4% paraformaldehyde and then stained with indicated antibody. A minimum of 10,000 cells were analyzed using an Attune NxT Flow cytometer (Thermo Fisher Scientific, Inc., Rockford, IL, USA)."}, "[2]": {"assay": "High-dose toxicity in normal mice (body weight)", "assay_type": "in vivo"}, "RKIP": {"tested_on": "RKIP", "assay": "RKIP expression by Western blotting in HEI-193 cells", "assay_type": "cell-based, human", "settings": "compounds 10 μM, 24 h (FIG. 1A) or 72 h (FIG. 2), Western blot", "procedure": "Cells were harvested and lysed using RIPA buffer [50 mM Tris-Cl, pH 7.5, 150 mM NaCl, 1% NP-40, 0.1% SDS, and 10% sodium deoxycholate] to examine cellular signaling. Protein concentrations in samples were measured using Bio-Rad (Hercules, CA, USA) protein assay kits and BSA standards. The samples (20 μg protein per lane) were separated by sodium dodecyl sulfate-polyacrylamide gel electrophoresis (SDS-PAGE), transferred to Immobilon-P^SQ transfer membranes (Millipore Corp., MA, USA), which were then cultured with 3% skim milk-containing TBS-T buffer (Tris-HCl-based buffer containing 20 mM Tris pH 7.6, 150 mM NaCl, and 0.05% Tween 20) for 1 hour at room temperature and then reacted with primary antibody in TBS-T overnight at 4° C. The membranes were then washed and reacted with secondary horseradish peroxidase (HRP)-conjugated antibodies [goat anti-mouse, goat anti-rabbit, and mouse anti-goat antibodies (Pierce, Thermo Fisher Scientific, Inc., Rockford, IL, USA)] in TBS-T at room temperature for 2 hours. The blots were detected using an HRP-conjugated secondary antibody using ECL kit (Intron, Seoul, Korea).\nBecause RKIP degradation in NF2 cells is clearly known (Mol Cancer Ther 17, 2271-2284, 2018), after first treating 260 novel synthetic compounds, RKIP expression was measured in HEI-193, a human NF2 cell line."}, "[3]": {"biological_target": "T1, interaction between TβR1 and RKIP (Homo sapiens, UniProt P30086+P36897)", "T1 construct": "host or cells: HEK293 (TβR1 lysate)", "T1 sequence (P30086 whole entry)": "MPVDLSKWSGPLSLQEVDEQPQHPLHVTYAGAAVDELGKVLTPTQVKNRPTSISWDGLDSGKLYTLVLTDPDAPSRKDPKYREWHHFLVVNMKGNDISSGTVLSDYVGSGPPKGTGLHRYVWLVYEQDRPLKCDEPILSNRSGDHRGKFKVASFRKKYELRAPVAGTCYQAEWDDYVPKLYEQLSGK", "T1 sequence (P36897 34-503)": "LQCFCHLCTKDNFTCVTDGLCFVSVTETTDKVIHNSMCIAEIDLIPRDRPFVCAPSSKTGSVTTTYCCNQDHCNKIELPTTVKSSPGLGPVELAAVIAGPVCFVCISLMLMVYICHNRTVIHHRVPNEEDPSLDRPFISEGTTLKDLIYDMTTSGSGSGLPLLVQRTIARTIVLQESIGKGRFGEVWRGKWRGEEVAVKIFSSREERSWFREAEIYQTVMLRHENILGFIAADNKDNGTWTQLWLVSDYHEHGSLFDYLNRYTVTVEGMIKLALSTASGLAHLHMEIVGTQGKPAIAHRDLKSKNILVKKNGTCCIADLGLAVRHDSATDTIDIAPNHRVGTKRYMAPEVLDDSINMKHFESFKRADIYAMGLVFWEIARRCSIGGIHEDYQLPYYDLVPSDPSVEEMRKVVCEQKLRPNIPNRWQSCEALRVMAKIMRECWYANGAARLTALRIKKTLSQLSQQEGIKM", "assay": "GST-pull down assay of TβR1-RKIP interaction", "assay_type": "binding", "procedure": "For protein-protein interaction analysis, glutathione S-transferase (GST)-pull down assay was performed. For GST-pull down, agarose-bead-conjugated GST-RKIP recombinant protein was reacted with FLAG-tagged TβR1-transfected HEK 293 cell lysates in PBS buffer at 4° C. for 1 hour. Immunoprecipitation (IP) assay was performed by reacting with FLAG-tagged TβR1- or HA-tagged RKIP-transfected HEI-193 cell lysates in PBS buffer. Whole lysates were reacted with appropriate primary antibodies at 4° C. for 2 hours and with agarose-bead-conjugated protein A/G (Invitrogen, Carlsbad, CA, USA) for 2 hours. After centrifugation, the precipitates were washed twice with RIPA buffer and subjected to SDS-PAGE and western blotting analysis."}, "HEI-193 cells [4]": {"tested_on": "HEI-193 cells", "assay": "RT-PCR gene expression in HEI-193 cells", "assay_type": "cell-based, human", "procedure": "For RT-PCR, total cellular RNA was extracted using an RNA extraction kit (Qiagen). Gene expression analysis was performed using cDNA synthesized from total RNA with MMLV RT (Invitrogen, Carlsbad, USA) and random hexamer. PCR from genomic DNA was performed using DiaStar Taq DNA polymerase (SolGent, Daejeon, Korea), and gene expression analysis was performed using the following specific primers: […]"}, "HEI-193 cells [5]": {"tested_on": "HEI-193 cells", "assay": "Cell proliferation (cell counting) in HEI-193 cells", "assay_type": "cell-based, human", "settings": "10 μM, indicated time (FIG. 12B)", "procedure": "Cell growth curves were analyzed by seeding 2×10^4 cells/well into a 6-well plate. After the indicated day, the cells were trypsinized and dissociated into single cells. A minimum of 10,000 cells were counted using an Attune NxT flow cytometer (Thermo Fisher Scientific, Inc., Rockford, IL, USA)."}, "HEI-193 cells [6]": {"tested_on": "HEI-193 cells", "assay": "FACS analysis and IF staining of schwann cell markers in HEI-193 cells", "assay_type": "cell-based, human", "settings": "7 days, compared with TEW7197 (FIG. 12F)", "procedure": "Cells were seeded on cover glass, washed with PBS, fixed with 4% paraformaldehyde (PFA) for 30 minutes at room temperature, and then permeabilized with 0.2% Triton X-100 at room temperature for 5 minutes. After treatment with blocking buffer [3% goat serum diluted in PBS] for 1 hour, cells were reacted with the specified antibody in the blocking buffer overnight at 4° C. Finally, the cells were reacted with secondary antibodies conjugated with FITC or rhodamine at 4° C. for 7 hours. The nuclei were stained with DAPI at room temperature for 10 minutes. After the cells were washed 3 times with PBS, the cover glass was mounted with a mounting solution (H-5501, Vector Laboratories, Cambridgeshire, UK) and immunofluorescence signals were detected using a fluorescence microscopy (Zeiss, Jena, Germany). In addition, for flow cytometry, cells were seeded in a 6-well plate and reacted with DMSO (control group), PRG-N-01 (5 μM), or TEW7197 (5 μM), respectively. After 4 days, the cells were fixed with 70% ethanol and labeled with propidium iodine. These samples were analyzed by FACS for cell-cycle analysis. […] A minimum of 10,000 cells were analyzed using an Attune NxT Flow cytometer (Thermo Fisher Scientific, Inc., Rockford, IL, USA)."}, "[7]": {"settings": "isolated allograft tumors, RT-PCR (FIG. 17E)"}}, "note": "“Also recorded” adds a separate entry of the source."}
{"smiles": "CCN(CC)CCOc1ccc(-c2nnn(Cc3ccc(OC)cc3)c2N)cc1", "note": "[PRG-N-01, 4-(4-(2-(diethylamino)ethoxy)phenyl)-1-(4-methoxybenzyl)-1H-1,2,3-triazol-5-amino]", "values": [{"measurement": "SOX2 mRNA in tumor tissues", "setting": "mouse schwannoma cells; [7]", "result": "reduction"}, {"measurement": "schwann cell markers and SOX10 mRNA in tumor tissues", "setting": "mouse schwannoma cells; [7]", "result": "induction"}, {"measurement": "RKIP, schwann cell markers (PLP, MBP, MPZ) and SOX10 at the protein level in tumor tissues", "setting": "mouse schwannoma cells; isolated allograft tumors, immunoblotting (FIG. 17D)", "result": "induction"}, {"measurement": "tumor growth", "setting": "mouse schwannoma cells; mouse schwannoma allograft in FVB/NJ mice, 20 mg/kg i.p., 3 times a week, 5 weeks", "result": "inhibited tumor growth"}, {"measurement": "tumor size and weight", "setting": "mouse schwannoma cells; mouse schwannoma allograft, 20 mg/kg i.p., 3 times a week, 5 weeks (FIGS. 17B, 17C)", "result": "obviously suppressed"}, {"measurement": "cell cycle", "setting": "HEI-193 cells [1]", "result": "cell cycle arrest was induced at the G1 phase"}, {"measurement": "body weight", "setting": "[2]; 200 mg/kg intraperitoneally (FIG. 18B)", "result": "did not change the body weight"}, {"measurement": "toxicity", "setting": "[2]; 200 mg/kg, 10 times the therapeutic dose", "result": "did not cause severe toxicity"}, {"measurement": "RKIP expression", "setting": "RKIP", "result": "induced RKIP expression; also recorded: increased RKIP expression"}, {"measurement": "interaction between TβR1 and RKIP at low concentrations", "setting": "[3]; GST pull-down, low concentrations (FIG. 6B)", "result": "showed an inhibitory effect even at low concentrations"}, {"measurement": "interaction between TβR1 and RKIP", "setting": "[3]; GST-RKIP beads with TβR1-transfected HEK293 lysates, 5 and 10 μM, 2 h (FIG. 5B)", "result": "inhibited the interaction between TβR1 and RKIP in a dose-dependent manner"}, {"measurement": "expression of cell cycle-related genes (CDK1, CDK4, CCNB1, PLK4)", "setting": "HEI-193 cells [4]; RT-PCR (FIG. 12D)", "result": "decreased"}, {"measurement": "expression of schwann cell markers (PLP, MBP, GFAP MPZ, PMP22, SOX10)", "setting": "HEI-193 cells [4]; RT-PCR (FIGS. 12D, 13C)", "result": "increased"}, {"measurement": "cell growth (cell count)", "setting": "HEI-193 cells [5]", "result": "completely inhibited cell growth"}, {"measurement": "schwann cell markers (FACS analysis)", "setting": "HEI-193 cells [6]", "result": "clearly increased schwann cell markers compared to TEW7197"}]}
